Assay: Plasma parameters pre- and post-illumination, whole-blood derived plasma, 50 μM amotosalen, ~6.4 J/cm^2
Excerpt: This pool and split format was repeated four times to generate four replicates.

## Cc1oc2c(C)c3oc(=O)cc(C)c3cc2c1COCCN [S-59, 3-(2-aminoethoxymethyl)-2,5,9-trimethylfuro[3,2-g]chromen-7-one]
340 nm, Post-UVA
  Factor II: 84.00 IU/dL
  Factor V: 88.83 IU/dL
  Factor VIII: 127.18 IU/dL
  Factor X: 84.68 IU/dL
  Factor XI: 73.93 IU/dL
  Fibrinogen: 259.75 mg/dL
  PT: 12.03 s
  Protein C: 122.33 IU/dL
  Protein S: 118.03 IU/dL
  Total Protein: 72.43 mg/mL
  aPTT: 33.95 s
  pCO2 @ 37° C.: 66.75 mmHg
  pH @ 37° C.: 7.20
  pO2 @ 37° C.: 42.88 mmHg
340 nm, Pre-UVA
  Factor II: 93.43 IU/dL
  Factor V: 97.08 IU/dL
  Factor VIII: 165.50 IU/dL
  Factor X: 96.68 IU/dL
  Factor XI: 85.65 IU/dL
  Fibrinogen: 290.00 mg/dL
  PT: 11.68 s
  Protein C: 133.90 IU/dL
  Protein S: 119.00 IU/dL
  Total Protein: 72.13 mg/mL
  aPTT: 31.15 s
  pCO2 @ 37° C.: 67.38 mmHg
  pH @ 37° C.: 7.19
  pO2 @ 37° C.: 131.80 mmHg
INT-100, Post-UVA
  Factor II: 110.93 IU/dL
  Factor V: 90.25 IU/dL
  Factor VIII: 108.85 IU/dL
  Factor X: 84.53 IU/dL
  Factor XI: 76.63 IU/dL
  Fibrinogen: 261.50 mg/dL
  PT: 12.28 s
  Protein C: 109.30 IU/dL
  Protein S: 121.80 IU/dL
  Total Protein: 70.35 mg/mL
  aPTT: 33.98 s
  pCO2 @ 37° C.: 60.68 mmHg
  pH @ 37° C.: 7.24
  pO2 @ 37° C.: 41.55 mmHg
INT-100, Pre-UVA
  Factor II: 91.45 IU/dL
  Factor V: 98.55 IU/dL
  Factor VIII: 154.25 IU/dL
  Factor X: 92.40 IU/dL
  Factor XI: 89.55 IU/dL
  Fibrinogen: 278.75 mg/dL
  PT: 11.48 s
  Protein C: 98.55 IU/dL
  Protein S: 111.88 IU/dL
  Total Protein: 80.18 mg/mL
  aPTT: 30.35 s
  pCO2 @ 37° C.: 69.20 mmHg
  pH @ 37° C.: 7.22
  pO2 @ 37° C.: 141.95 mmHg
